From ChEMBL document CHEMBL1148517, “A new class of selective, non-basic 5-HT2A receptor antagonists” (Bioorg Med Chem Lett, 2006)
pIC50, pKi: −log10 of the molar value.

Experiments:
[1] = biological target: T1, 5-hydroxytryptamine receptor 2A (Homo sapiens, UniProt P28223); test: Binding affinity to human 5HT2A
[2] = biological target: T2, 5-hydroxytryptamine receptor 2C (Homo sapiens, UniProt P28335); test: Binding affinity to human 5HT2C
T2 sequence (P28335 whole entry): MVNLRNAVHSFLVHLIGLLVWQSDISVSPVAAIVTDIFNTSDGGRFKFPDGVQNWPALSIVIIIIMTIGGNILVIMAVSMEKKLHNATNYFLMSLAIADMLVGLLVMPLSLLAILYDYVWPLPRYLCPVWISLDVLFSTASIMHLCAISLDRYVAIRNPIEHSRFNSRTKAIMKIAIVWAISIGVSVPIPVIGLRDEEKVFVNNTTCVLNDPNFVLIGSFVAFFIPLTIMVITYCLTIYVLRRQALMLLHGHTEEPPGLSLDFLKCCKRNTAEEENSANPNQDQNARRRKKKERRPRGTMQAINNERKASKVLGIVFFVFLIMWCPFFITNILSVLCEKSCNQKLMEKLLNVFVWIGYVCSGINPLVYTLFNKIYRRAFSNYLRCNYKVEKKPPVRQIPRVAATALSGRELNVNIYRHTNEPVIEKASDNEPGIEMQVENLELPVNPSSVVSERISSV

[3] = biological target: D(2) dopamine receptor (Homo sapiens, UniProt P14416); test: Binding affinity to human D2 receptor
[4] = biological target: Voltage-gated inwardly rectifying potassium channel KCNH2 (Homo sapiens, UniProt Q12809); test: Binding affinity to human IKr
[5] = biological target: T1, 5-hydroxytryptamine receptor 2A; test: Antagonist activity against human 5HT2A transfected in CHO cells by aurora beta lactamase reporter gene assay; format: functional, cell-based

T1 sequence (P28223 whole entry): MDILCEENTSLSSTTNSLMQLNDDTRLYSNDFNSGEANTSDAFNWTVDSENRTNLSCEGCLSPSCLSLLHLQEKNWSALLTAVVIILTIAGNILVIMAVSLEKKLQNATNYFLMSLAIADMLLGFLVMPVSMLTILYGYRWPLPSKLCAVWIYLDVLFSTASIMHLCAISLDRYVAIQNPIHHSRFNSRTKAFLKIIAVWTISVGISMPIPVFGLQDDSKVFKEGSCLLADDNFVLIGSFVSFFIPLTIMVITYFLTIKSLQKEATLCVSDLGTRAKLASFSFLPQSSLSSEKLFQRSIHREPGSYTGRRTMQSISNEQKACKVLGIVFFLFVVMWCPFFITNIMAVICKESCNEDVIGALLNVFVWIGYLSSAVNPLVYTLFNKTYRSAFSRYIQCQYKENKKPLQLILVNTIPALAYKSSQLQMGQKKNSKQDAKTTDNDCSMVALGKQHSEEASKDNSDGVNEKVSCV
Chain of D(2) dopamine receptor (P14416 whole entry): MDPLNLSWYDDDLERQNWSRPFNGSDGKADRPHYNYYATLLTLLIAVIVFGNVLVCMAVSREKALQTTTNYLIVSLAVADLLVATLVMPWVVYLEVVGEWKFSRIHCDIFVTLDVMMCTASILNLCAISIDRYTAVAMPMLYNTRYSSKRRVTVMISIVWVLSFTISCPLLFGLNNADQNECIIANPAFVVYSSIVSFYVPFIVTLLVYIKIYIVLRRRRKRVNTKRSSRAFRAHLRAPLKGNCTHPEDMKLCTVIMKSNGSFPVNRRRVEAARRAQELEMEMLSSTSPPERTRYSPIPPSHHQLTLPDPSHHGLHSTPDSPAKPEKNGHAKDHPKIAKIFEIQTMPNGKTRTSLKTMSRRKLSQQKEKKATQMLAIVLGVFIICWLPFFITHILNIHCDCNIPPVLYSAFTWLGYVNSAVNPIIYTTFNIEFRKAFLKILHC
Chain of Voltage-gated inwardly rectifying potassium channel KCNH2 (Q12809 whole entry): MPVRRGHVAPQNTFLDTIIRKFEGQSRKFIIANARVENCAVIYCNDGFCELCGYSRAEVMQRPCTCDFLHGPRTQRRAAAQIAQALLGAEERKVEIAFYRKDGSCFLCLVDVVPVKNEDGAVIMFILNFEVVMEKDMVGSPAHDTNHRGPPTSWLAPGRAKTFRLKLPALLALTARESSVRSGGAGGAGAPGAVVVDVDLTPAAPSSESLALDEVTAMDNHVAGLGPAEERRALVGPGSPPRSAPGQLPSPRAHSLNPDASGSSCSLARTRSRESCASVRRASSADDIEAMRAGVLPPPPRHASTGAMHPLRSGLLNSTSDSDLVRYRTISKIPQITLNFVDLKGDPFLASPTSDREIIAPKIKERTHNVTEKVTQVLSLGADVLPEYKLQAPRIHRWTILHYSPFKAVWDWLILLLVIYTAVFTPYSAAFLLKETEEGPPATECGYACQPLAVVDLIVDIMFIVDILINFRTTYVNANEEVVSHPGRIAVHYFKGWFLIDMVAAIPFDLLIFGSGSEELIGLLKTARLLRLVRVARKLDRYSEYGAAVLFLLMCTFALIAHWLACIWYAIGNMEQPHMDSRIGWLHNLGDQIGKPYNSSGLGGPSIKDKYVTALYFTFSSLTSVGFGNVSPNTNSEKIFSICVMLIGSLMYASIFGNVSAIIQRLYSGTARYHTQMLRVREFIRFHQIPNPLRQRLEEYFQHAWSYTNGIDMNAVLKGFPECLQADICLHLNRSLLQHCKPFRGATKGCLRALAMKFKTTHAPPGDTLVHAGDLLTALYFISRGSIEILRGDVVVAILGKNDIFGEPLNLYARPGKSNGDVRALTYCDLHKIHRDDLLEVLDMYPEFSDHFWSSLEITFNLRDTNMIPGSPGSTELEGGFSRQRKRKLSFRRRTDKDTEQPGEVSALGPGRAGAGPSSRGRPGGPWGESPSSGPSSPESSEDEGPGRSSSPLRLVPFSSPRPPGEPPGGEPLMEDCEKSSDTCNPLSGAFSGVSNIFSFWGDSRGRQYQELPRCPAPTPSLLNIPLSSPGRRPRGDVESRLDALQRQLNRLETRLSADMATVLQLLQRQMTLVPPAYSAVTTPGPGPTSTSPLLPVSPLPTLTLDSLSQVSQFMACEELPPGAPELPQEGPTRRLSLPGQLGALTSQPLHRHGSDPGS

SMILES	pKi [1]	pKi [2]	pKi [3]	pIC50 [5]	pKi [4]
O=S(=O)(c1ccc(F)cc1)N1CCC(F)(CCc2ccc(F)cc2F)CC1	7.62	6.09	< 6.00		< 5.05
O=C(c1cccc2cccnc12)N1CCC(CCc2ccc(F)cc2F)CC1	8.54	7.55	< 6.00		< 5.05
N#Cc1c[nH]c2c(C(=O)N3CCN(CCc4ccc(F)cc4F)CC3)cccc12	9.06	6.25	< 6.00		5.90
O=S(=O)(c1ccc(F)cc1)N1CCN(CCc2ccc(F)cc2F)CC1	8.36	5.42	< 6.00		5.31
O=S(=O)(c1ccc(F)cc1)N1CC=C(CCc2ccc(F)cc2F)CC1	7.66	6.35	< 6.00		< 5.05
O=S(=O)(c1ccc(F)cc1)N1CCC(O)(CCc2ccc(F)cc2F)CC1	6.72	< 5.40	< 6.00		< 5.05

More lines, main results first:

pKi [1]	pKi [2]	pKi [3]	pIC50 [5]	SMILES	pKi [4]
8.09	7.15	< 6.00		N#Cc1ccccc1S(=O)(=O)N1CCC(CCc2ccc(F)cc2F)CC1	< 5.05
8.77	7.02	< 6.00		O=S(=O)(c1cccc2ccccc12)N1CCC(CCc2ccc(F)cc2F)CC1	< 5.05
8.00	6.62	< 6.00		O=S(=O)(c1ccccc1F)N1CCC(CCc2ccc(F)cc2F)CC1	< 5.05
	6.96	< 6.00		O=C(c1ccccc1F)N1CCC(CCc2ccc(F)cc2F)CC1	< 5.05
8.21	6.39	< 6.00		O=S(=O)(c1ccccc1Cl)N1CCC(CCc2ccc(F)cc2F)CC1	< 5.05
7.28	5.69	< 6.00		O=S(=O)(c1ccc(F)cc1)N1CCC(CCc2ccc(F)cc2F)CC1	< 5.05
8.68	6.74	< 6.00		O=S(=O)(c1cccc2cccnc12)N1CCC(CCc2ccc(F)cc2F)CC1	< 5.05
7.85	6.00	< 6.00	6.50	O=S(=O)(c1cccc(F)c1)N1CCC(CCc2ccc(F)cc2F)CC1	< 5.05
